# In patent publication US20200024662A1, “METHODS FOR TREATING OPIOID ADDICTION” (ASSUREX HEALTH, INC., priority 2016, published 2020):
# “Also recorded” adds a separate entry of the source.
# What was measured:
# [1] = tested on: patients treated with Methadone in the START trial; assay: PK/PD Model 2 binning vs Methadone completion; assay type: in vivo, human
# Experimental: For the model analyses, models were developed that sort patients into one of three categories, Green (‘G’) Yellow (‘Y’) or Red (‘R’). Patients determined to be high risk for non-completion by the model are placed into the Red Bin. Patients at intermediate risk of non-completion are placed in the Yellow Bin, and for this study, Yellow Bin patients are treated the same as patients found to be at Low Risk of non-completion, or those who are placed in the Green Bin. Thus, the Green and Yellow bins are combined for analysis.
# Three separate PK/PD Models were generated by combining the PK model with each of the three PD models separately as follows. For each PKPD model, the corresponding PD risk score was added to the raw PK score (bin). A total PD risk score that was negative, represents a reduction of the baseline PK score, while a total PD risk score that was positive represented an increase in the baseline PK score.
# Samples from patients treated with Methadone in the START trial described in Example 1 above were used (N=352). […] Each model was tested as described below against Sample 1, Sample 2 and/or the Full Sample.
# Pearson's product moment, Chi-square with Yates correction were calculated. Diagnostic tests, odds ratios, Pearson's product moment, Chi-square with Yates correction were calculated using MEDCALC and R version 3.3.1.
# [2] = tested on: START trial patients; assay: Single-gene logistic regression of non-completion of 24-week opioid agonist replacement therapy (START trial)
# [3] = PK/PD Model 2, Full Sample, Green bin, Risk Score −2.2 to 1
# [4] = PK/PD Model 2, Full Sample, Red bin, Risk Score 2.7 to 4.7
# [5] = PK/PD Model 2, Full Sample, Yellow bin, Risk Score 1.1 to 2.5
# [6] = PK/PD Model 2, Sample 1, Green bin, Risk Score −2.3 to 2
# [7] = PK/PD Model 2, Sample 1, Red bin, Risk Score 3.3 to 6.7
# [8] = PK/PD Model 2, Sample 1, Yellow bin, Risk Score 2.2 to 3.2
# [9] = PK/PD Model 2, Sample 2, Green bin, Risk Score −2.2 to 1
# [10] = PK/PD Model 2, Sample 2, Red bin, Risk Score 2.7 to 4.7
# [11] = PK/PD Model 2, Sample 2, Yellow bin, Risk Score 1.1 to 2.5
# [12] = Table 4.3, 24-week treatment, logistic regression with dose category
compound,measurement,setting,value
"CCC(=O)C(CC(C)N(C)C)(c1ccccc1)c1ccccc1 (stereo not shown) [Methadone, methadone]",Completers,[1]; [3],167
same,Non Completers,[1]; [3],8
same,Completers,[1]; [4],60
same,Non Completers,[1]; [4],20
same,Completers,[1]; [5],80
same,Non Completers,[1]; [5],17
same,Completers,[1]; [6],88
same,Non Completers,[1]; [6],3
same,Completers,[1]; [7],27
same,Non Completers,[1]; [7],8
same,Completers,[1]; [8],41
same,Non Completers,[1]; [8],9
same,Completers,[1]; [9],92
same,Non Completers,[1]; [9],2
same,Completers,[1]; [10],19
same,Non Completers,[1]; [10],9
same,Completers,[1]; [11],48
same,Non Completers,[1]; [11],6
same,"OR (95% CI) of non-completion, COMT VAL/MET vs MET/MET",[2]; [12],2.76 (0.99-7.68)
same,"OR (95% CI) of non-completion, COMT VAL/VAL vs MET/MET",[2]; [12],3.16 (1.07-9.31)
same,"OR (95% CI) of non-completion, COMT VAL/VAL vs VAL/MET",[2]; [12],1.14 (0.56-2.34)
same,"OR (95% CI) of non-completion, CYP3A4 EM vs IM + PM",[2]; [12],1.66 (0.48-5.77)
same,"OR (95% CI) of non-completion, HTR2A Intermediate vs Normal",[2]; [12],0.58 (0.25-1.36)
same,"OR (95% CI) of non-completion, HTR2A Intermediate vs Reduced",[2]; [12],0.73 (0.35-1.52)
same,"OR (95% CI) of non-completion, HTR2A Normal vs Reduced",[2]; [12],1.26 (0.51-3.09)
same,"OR (95% CI) of non-completion, SLC6A4 L/L vs S/S",[2]; [12],0.54 (0.23-1.23)
same,"OR (95% CI) of non-completion, SLC6A4 L/S vs L/L",[2]; [12],0.77 (0.36-1.65)
same,"OR (95% CI) of non-completion, SLC6A4 L/S vs S/S",[2]; [12],0.41 (0.19-0.91)
same,"times more likely not to complete the 24-week treatment, SLC6A4 reduced phenotype compared to intermediate phenotype",[2]; […],2.41 times
same,effect of dose level (Dose-bin-category covariate) on non-completion,[2]; significance at p-value ≤0.05 in the single-gene logistic regression models,significant for all eleven genes; also recorded: played an important role
same,"times more likely not to complete the 24-week treatment, COMT high phenotype compared to reduced phenotype",[2]; text statement of odds ratio,3.16 times
